Experiment [1] concerns the target T1, Peroxisome proliferator-activated receptor gamma (Homo sapiens) (UniProt P37231).
T1 sequence (whole entry): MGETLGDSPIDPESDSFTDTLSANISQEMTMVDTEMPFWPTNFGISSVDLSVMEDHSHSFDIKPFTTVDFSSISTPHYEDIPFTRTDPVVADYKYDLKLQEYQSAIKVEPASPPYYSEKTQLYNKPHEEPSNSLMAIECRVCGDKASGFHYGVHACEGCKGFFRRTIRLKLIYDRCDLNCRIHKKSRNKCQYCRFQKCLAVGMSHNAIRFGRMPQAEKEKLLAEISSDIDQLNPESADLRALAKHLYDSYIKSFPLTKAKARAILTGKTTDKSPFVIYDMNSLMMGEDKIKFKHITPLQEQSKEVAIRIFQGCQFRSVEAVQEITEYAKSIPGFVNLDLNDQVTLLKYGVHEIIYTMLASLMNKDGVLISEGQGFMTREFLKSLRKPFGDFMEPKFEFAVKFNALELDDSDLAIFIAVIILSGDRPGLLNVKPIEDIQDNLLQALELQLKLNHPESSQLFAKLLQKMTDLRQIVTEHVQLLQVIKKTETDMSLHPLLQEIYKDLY
The settings on record: filed as agonist.

The target of experiment [2] is T2, Peroxisome proliferator-activated receptor alpha (Homo sapiens) (UniProt Q07869).
T2 sequence (whole entry): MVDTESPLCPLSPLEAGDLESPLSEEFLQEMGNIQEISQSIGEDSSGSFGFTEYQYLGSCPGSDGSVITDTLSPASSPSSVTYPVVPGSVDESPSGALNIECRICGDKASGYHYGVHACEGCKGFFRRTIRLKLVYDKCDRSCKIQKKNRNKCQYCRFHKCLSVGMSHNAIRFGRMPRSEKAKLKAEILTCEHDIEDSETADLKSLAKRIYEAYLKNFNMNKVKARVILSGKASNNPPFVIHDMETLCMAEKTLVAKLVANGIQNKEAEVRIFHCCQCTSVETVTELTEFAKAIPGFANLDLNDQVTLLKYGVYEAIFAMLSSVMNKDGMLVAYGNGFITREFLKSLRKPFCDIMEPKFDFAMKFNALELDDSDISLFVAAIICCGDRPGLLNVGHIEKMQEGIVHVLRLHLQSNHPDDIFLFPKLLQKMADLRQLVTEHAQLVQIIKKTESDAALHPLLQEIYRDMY
Particulars: filed as agonist.
Description: Binding affinity to recombinant PPAR alpha LBD (unknown origin) expressed in Escherichia coli BL21 assessed as melting temperature by differential scanning calorimetry analysis (Rvb = 47.45 degreeC)

In the case of `CN(CCOc1ccc(CC2SC(=O)NC2=O)cc1)c1ccccn1` (configuration not stated), the Tm in experiment [1] was found to be 53 °C.

With `Cc1cccc(Nc2cc(Cl)nc(SCC(=O)O)n2)c1C`, the Tm in experiment [2] came out at 50 °C.
